21 molecules from patent US9051310B2, “Nicotinamide derivative or salt thereof” (FUJIFILM Corporation, priority 2011, dated 2015) can be followed below.

The target in this assay is T1, glutathione S-transferase (GST)-linked full-length human Syk protein (Homo sapiens, UniProt P43405).
T1 construct: glutathione S-transferase (GST)-linked full-length human Syk protein; purchased Carna Biosciences; host or cells: Baculovirus expression system
Kind of assay: Syk enzyme assay. It is filed as biochemical. Conditions: 0.83 nM Syk, time-resolved fluorescence; read-out: IC50 of Syk-inhibitory activity. The procedure, abridged:
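Phosphotyrosine on a biotin-peptide substrate (0.5 μM) was read by time-resolved fluorescence at 615 and 665 nm with Eu-anti-pTyr antibody and APC-streptavidin after 1 h EDTA stop.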

By IC50 is commonly meant the concentration that gives 50% inhibition. Take `Cc1ncc(Nc2nc(N[C@H](c3cc(F)cc(F)c3)[C@H](C)N)c(F)cc2C(N)=O)cc1-n1nccn1` [Example 2-548, 6-(((1R,2S)-2-amino-1-(3,5-difluorophenyl)propyl)amino)-5-fluoro-2-((6-methyl-5-(2H-1,2,3-triazol-2-yl)pyridin-3-yl)amino)nicotinamide]: the IC50 was in the range of 10 to 50 nM.

With `CC[C@@H](Nc1nc(Nc2cnc(NC)c(F)c2)c(C(N)=O)cc1F)[C@H](C)N` [Example 2-276, 6-(((2S,3R)-2-aminopentan-3-yl)amino)-5-fluoro-2-((5-fluoro-6-(methylamino)pyridin-3-yl)amino)nicotinamide], the 50% inhibitory concentration (IC50) fell in the range of 10 to 50 nM.

As to `COCCn1ncc2cc(Nc3nc(N[C@H](c4cc(F)cc(F)c4)[C@H](C)N)c(F)cc3C(N)=O)ccc21` [Example 2-550, 6-(((1R,2S)-2-amino-1-(3,5-difluorophenyl)propyl)amino)-5-fluoro-2-((1-(2-methoxyethyl)-1H-indazol-5-yl)amino)nicotinamide], the IC50 was below 10 nM.

For `Cc1ncc(Nc2nc(N[C@@H]3CC[C@@H](OCc4ccccc4)C[C@@H]3N)c(F)cc2C(N)=O)cc1-n1nccn1` (racemic) [Example 2-528, Mixture of 6-((2-amino-4-(benzyloxy)cyclohexyl)amino)-5-fluoro-2-((6-methyl-5-(2H-1,2,3-triazol-2-yl)pyridin-3-yl)amino)nicotinamide (1R,2S,4R), (1S,2R,4S)], the IC50 lay within 50 to 100 nM.

`Cc1nn(-c2cncc(Nc3nc(N[C@H](C4CC4)[C@H](C)N)c(F)cc3C(N)=O)c2)nc1C` [Example 2-534, 6-(((1R,2S)-2-amino-1-cyclopropylpropyl)amino)-2-((5-(4,5-dimethyl-2H-1,2,3-triazol-2-yl)pyridin-3-yl)amino)-5-fluoronicotinamide]: the 50% inhibitory concentration (IC50) lay in the range of 50 to 100 nM.

As to `CC(C)C[C@H](CN)Nc1nc(Nc2cnc3c(c2)c(N(C)C)nn3C)c(C(N)=O)cc1F` [Example 2-287, (R)-6-((1-amino-4-methylpentan-2-yl)amino)-2-((3-(dimethylamino)-1-methyl-1H-pyrazolo[3,4-b]pyridin-5-yl)amino)-5-fluoronicotinamide], the half-inhibitory concentration (IC50) was in the range of 10 to 50 nM.

With `CC[C@@H](Nc1nc(Nc2ccnc(OCCOC)c2)c(C(N)=O)cc1F)[C@H](C)N` [Example 2-34, 6-(((2S,3R)-2-aminopentan-3-yl)amino)-5-fluoro-2-((2-(2-methoxyethoxy)pyridin-4-yl)amino)nicotinamide], the IC50 was 10 to 50 nM.

For `Cc1ncc(Nc2nc(N[C@H](c3ccc(F)c(F)c3)[C@H](C)N)c(F)cc2C(N)=O)cc1-n1nccn1` [Example 2-552, 6-(((1R,2S)-2-amino-1-(3,4-difluorophenyl)propyl)amino)-5-fluoro-2-((6-methyl-5-(2H-1,2,3-triazol-2-yl)pyridin-3-yl)amino)nicotinamide], the IC50 was below 10 nM.

For `C[C@H](N)[C@@H](CC1CC1)Nc1nc(Nc2cc(F)c3c(c2)c(N(C)C)nn3C)c(C(N)=O)cc1F` [Example 2-191, 6-(((2R,3S)-3-amino-1-cyclopropylbutan-2-yl)amino)-2-((3-(dimethylamino)-7-fluoro-1-methyl-1H-indazol-5-yl)amino)-5-fluoronicotinamide], the half-inhibitory concentration (IC50) fell in the range of 10 to 50 nM.

With `Cc1cnn(-c2cncc(Nc3nc(N[C@@H]4CCOC[C@@H]4N)c(F)cc3C(N)=O)c2)c1` [Example 2-526, 6-(((3R,4R)-3-aminotetrahydro-2H-pyran-4-yl)amino)-5-fluoro-2-((5-(4-methyl-1H-pyrazol-1-yl)pyridin-3-yl)amino)nicotinamide], the half-maximal inhibitory concentration (IC50) is below 10 nM.

`CCCC[C@@H](Nc1nc(Nc2cncc3c2cnn3CCOC)c(C(N)=O)cc1F)[C@H](C)N` [Example 2-389, 6-(((2S,3R)-2-aminoheptan-3-yl)amino)-5-fluoro-2-((1-(2-methoxyethyl)-1H-pyrazolo[3,4-c]pyridin-4-yl)amino)nicotinamide]: the IC50 fell in the range of 10 to 50 nM.

For the molecule `COc1ccc([C@@H](Nc2nc(Nc3cnc(OC)c(-n4ccnn4)c3)c(C(N)=O)cc2F)[C@H](C)N)cc1` [Example 2-339, 6-(((1R,2S)-2-amino-1-(4-methoxyphenyl)propyl)amino)-5-fluoro-2-((6-methoxy-5-(1H-1,2,3-triazol-1-yl)pyridin-3-yl)amino)nicotinamide], the 50% inhibitory concentration (IC50) was 50 to 100 nM.

For `CC(C)C[C@@H](Nc1nc(Nc2cncc3c2cnn3CC(F)F)c(C(N)=O)cc1F)[C@H](C)N` [Example 2-400, 6-(((2S,3R)-2-amino-5-methylhexan-3-yl)amino)-2-((1-(2,2-difluoroethyl)-1H-pyrazolo[3,4-c]pyridin-4-yl)amino)-5-fluoronicotinamide], the IC50 is below 10 nM.

As to `Cc1nn(C)c2ncc(Nc3nc(N[C@@H]4CCOC[C@@H]4N)c(F)cc3C(N)=O)cc12` [Example 2-333, 6-(((3R,4R)-3-aminotetrahydro-2H-pyran-4-yl)amino)-2-((1,3-dimethyl-1H-pyrazolo[3,4-b]pyridin-5-yl)amino)-5-fluoronicotinamide], the IC50 lay in the range of 10 to 50 nM.

As to `CC(C)[C@@H](Nc1nc(Nc2ccc3cnn(C)c3c2)c(C(N)=O)cc1F)[C@H](C)N` [Example 2-102, 6-(((2S,3R)-2-amino-4-methylpentan-3-yl)amino)-5-fluoro-2-((1-methyl-1H-indazol-6-yl)amino)nicotinamide], the IC50 fell in the range of 50 to 100 nM.

Take `COc1nn(CC(F)F)c2ccc(Nc3nc(N[C@H](CC4CC4)[C@H](C)N)c(F)cc3C(N)=O)cc12` [Example 2-53, 6-(((2R,3S)-3-amino-1-cyclopropylbutan-2-yl)amino)-2-((1-(2,2-difluoroethyl)-3-methoxy-1H-indazol-5-yl)amino)-5-fluoronicotinamide]: the IC50 is below 10 nM.

With `CC(C)C[C@@H](Nc1nc(Nc2cccc3c2cnn3C)c(C(N)=O)cc1F)[C@H](C)N` [Example 2-12, 6-(((2S,3R)-2-amino-5-methylhexan-3-yl)amino)-5-fluoro-2-((1-methyl-1H-indazol-4-yl)amino)nicotinamide], the IC50 is below 10 nM.

As to `CC[C@@H](Nc1nc(Nc2cnc3c(c2)c(C)nn3C)c(C(N)=O)cc1F)[C@H](C)N` [Example 2-241, 6-(((2S,3R)-2-aminopentan-3-yl)amino)-2-((1,3-dimethyl-1H-pyrazolo[3,4-b]pyridin-5-yl)amino)-5-fluoronicotinamide], the IC50 was 10 to 50 nM.

For `Cc1ncc(Nc2nc(NC3[C@@H](OCc4ccccc4)CCC[C@@H]3N)c(F)cc2C(N)=O)cc1-n1nccn1` (mixture of isomers) [Example 2-484, Mixture of 6-((2-amino-6-(benzyloxy)cyclohexyl)amino)-5-fluoro-2-((6-methyl-5-(2H-1,2,3-triazol-2-yl)pyridin-3-yl)amino)nicotinamide (1S,2S,6S),(1R,2R,6R)], the IC50 was 10 to 50 nM.

For the molecule `CC[C@H](N)[C@@H](C)Nc1nc(Nc2ccc3c(c2)c(OC(F)F)nn3C)c(C(N)=O)cc1F` [Example 2-351, 6-(((2R,3S)-3-aminopentan-2-yl)amino)-2-((3-(difluoromethoxy)-1-methyl-1H-indazol-5-yl)amino)-5-fluoronicotinamide], the 50% inhibitory concentration (IC50) is below 10 nM.

On to `CCn1ncc2c(Nc3nc(N[C@H](c4ccc(F)c(F)c4)[C@H](C)N)c(F)cc3C(N)=O)cccc21` [Example 2-555, 6-(((1R,2S)-2-amino-1-(3,4-difluorophenyl)propyl)amino)-2-((1-ethyl-1H-indazol-4-yl)amino)-5-fluoronicotinamide], for which the concentration for half-maximal inhibition (IC50) was below 10 nM.
